From patent US20200288711A1, “Pyrimidin-4-Carbamate or Urea Derivatives As Herbicides” (Syngenta Participations AG, priority 2017, published 2020)

Key:
Type in all cases: in vivo
Setaria faberi (SETFA) [1] = assay: B1 pre-emergence herbicidal activity; design: key to Pre-emergence herbicidal activity, SETFA: 5=total damage to plant; 0=no damage to plant; settings: Test 1b, rate 1000 g/ha, evaluated after 13 days, score 0-5 (5=total damage, 0=no damage)
Experimental: (§1) Seeds of a variety of test species were sown in standard soil in pots: Triticum aestivium (TRZAW), Avena fatua (AVEFA), Alopecurus myosuroides (ALOMY), Echinochloa crus-galli (ECHCG), Lolium perenne (LOLPE), Zea mays (ZEAMX), Abutilon theophrasti (ABUTH), Amaranthus retroflexus (AMARE) and Setaria faberi (SETFA). After cultivation for one day (pre-emergence) under controlled conditions in a glasshouse (at 24/16° C., day/night; 14 hours light; 65% humidity), the plants were sprayed with an aqueous spray solution derived from the formulation of the technical active ingredient in acetone/water (50:50) solution containing 0.5% Tween 20 (polyoxyethelyene sorbitan monolaurate, CAS RN 9005-64-5). The test plants were then grown in a glasshouse under controlled conditions (at 24/16° C., day/night; 14 hours light; 65% humidity) and watered twice daily. After 13 days, the test was evaluated (5=total damage to plant; 0=no damage to plant).

Lolium perenne (LOLPE) [2] = assay: B2 post-emergence herbicidal activity; design: key: 5=total damage to plant; 0=no damage to plant; settings: Test 2b, rate 1000 g/ha, evaluated after 13 days, score 0-5 (5=total damage, 0=no damage)
Experimental: (§2) Seeds of a variety of test species were sown in standard soil in pots: Triticum aestivium (TRZAW), Avena fatua (AVEFA), Alopecurus myosuroides (ALOMY), Echinochloa crus-galli (ECHCG), Lolium perenne (LOLPE), Zea mays (ZEAMX), Abutilon theophrasti (ABUTH), Amaranthus retroflexus (AMARE) and Setaria faberi (SETFA). After 8 days cultivation (post-emergence) under controlled conditions in a glasshouse (at 24/16° C., day/night; 14 hours light; 65% humidity), the plants were sprayed with an aqueous spray solution derived from the formulation of the technical active ingredient in acetone/water (50:50) solution containing 0.5% Tween 20 (polyoxyethelyene sorbitan monolaurate, CAS RN 9005-64-5). The test plants were then grown in a glasshouse under controlled conditions (at 24/16° C., day/night; 14 hours light; 65% humidity) and watered twice daily. After 13 days, the test was evaluated (5=total damage to plant; 0=no damage to plant).

[3] = system: Echinochloa crus-galli (ECHCG); assay: B2 post-emergence herbicidal activity; design: key: 5=total damage to plant; 0=no damage to plant; settings: Test 2b, rate 1000 g/ha, evaluated after 13 days, score 0-5 (5=total damage, 0=no damage)
Experimental: as §2

Setaria faberi (SETFA) [4] = assay: B2 post-emergence herbicidal activity; design: key: 5=total damage to plant; 0=no damage to plant; settings: Test 2b, rate 1000 g/ha, evaluated after 13 days, score 0-5 (5=total damage, 0=no damage)
Experimental: as §2

[5] = system: Alopecurus myosuroides (ALOMY); assay: B2 post-emergence herbicidal activity; design: key: 5=total damage to plant; 0=no damage to plant; settings: Test 2b, rate 1000 g/ha, evaluated after 13 days, score 0-5 (5=total damage, 0=no damage)
Experimental: as §2

Avena fatua (AVEFA) [6] = assay: B2 post-emergence herbicidal activity; design: key: 5=total damage to plant; 0=no damage to plant; settings: Test 2b, rate 1000 g/ha, evaluated after 13 days, score 0-5 (5=total damage, 0=no damage)
Experimental: as §2

[7] = system: Triticum aestivium (TRZAW); assay: B2 post-emergence herbicidal activity; design: key: 5=total damage to plant; 0=no damage to plant; settings: Test 2b, rate 1000 g/ha, evaluated after 13 days, score 0-5 (5=total damage, 0=no damage)
Experimental: as §2

Lolium perenne (LOLPE) [8] = assay: B1 pre-emergence herbicidal activity; design: key: 5=total damage to plant; 0=no damage to plant; settings: Test 1b, rate 1000 g/ha, evaluated after 13 days, score 0-5 (5=total damage, 0=no damage)
Experimental: as §1

[9] = system: Alopecurus myosuroides (ALOMY); assay: B1 pre-emergence herbicidal activity; design: key: 5=total damage to plant; 0=no damage to plant; settings: Test 1b, rate 1000 g/ha, evaluated after 13 days, score 0-5 (5=total damage, 0=no damage)
Experimental: as §1

Avena fatua (AVEFA) [10] = assay: B1 pre-emergence herbicidal activity; design: key: 5=total damage to plant; 0=no damage to plant; settings: Test 1b, rate 1000 g/ha, evaluated after 13 days, score 0-5 (5=total damage, 0=no damage)
Experimental: as §1

[11] = system: Triticum aestivium (TRZAW); assay: B1 pre-emergence herbicidal activity; design: key: 5=total damage to plant; 0=no damage to plant; settings: Test 1b, rate 1000 g/ha, evaluated after 13 days, score 0-5 (5=total damage, 0=no damage)
Experimental: as §1

[12] = system: Echinochloa crus-galli (ECHCG); assay: B1 pre-emergence herbicidal activity; design: key to Pre-emergence herbicidal activity, ECHCG: 5=total damage to plant; 0=no damage to plant; settings: Test 1b, rate 1000 g/ha, evaluated after 13 days, score 0-5 (5=total damage, 0=no damage)
Experimental: as §1

Compound | Pre-emergence herbicidal activity, SETFA (Setaria faberi (SETFA) [1]) | Control of weed species after post-emergence application, LOLPE (Lolium perenne (LOLPE) [2]) | Control of weed species after post-emergence application, ECHCG [3] | Control of weed species after post-emergence application, SETFA (Setaria faberi (SETFA) [4]) | Control of weed species after post-emergence application, ALOMY [5] | Control of weed species after post-emergence application, AVEFA (Avena fatua (AVEFA) [6]) | Control of weed species after post-emergence application, TRAZW [7] | Pre-emergence herbicidal activity, LOLPE (Lolium perenne (LOLPE) [8]) | Pre-emergence herbicidal activity, ALOMY [9] | Pre-emergence herbicidal activity, AVEFA (Avena fatua (AVEFA) [10]) | Pre-emergence herbicidal activity, TRAZW [11] | Pre-emergence herbicidal activity, ECHCG [12]
CC(C)(C)OC(=O)Nc1cnc(-c2cncc(C#N)c2)nc1C(F)(F)F [Compound E12, tert-butyl N-[2-(5-cyano-3-pyridyl)-4-(trifluoromethyl)pyrimidin-5-yl]carbamate] | 4 | 1 | 2 | 5 | 0 | 2 | 0 | 0 | 0 | 0 | 0 | 3
CN(C)C(=O)Nc1cnc(-c2cncc(F)c2)nc1C(F)(F)F [Compound E13] | 4 | 3 | 4 | 5 | 1 | 3 | 2 | 1 | 0 | 1 | 0 | 3
CC(C)OC(=O)Nc1cnc(-c2cncc(F)c2)nc1C(F)(F)F [Compound E14, isopropyl N-[2-(5-fluoro-3-pyridyl)-4-(trifluoromethyl)pyrimidin-5-yl]carbamate] | 5 | 3 | 4 | 5 | 0 | 3 | 1 | 0 | 0 | 1 | 0 | 3
CC(C)COC(=O)Nc1cnc(-c2cncc(F)c2)nc1C(F)(F)F [Compound E15] | 5 | 3 | 5 | 5 | 1 | 4 | 2 | 1 | 0 | 2 | 0 | 5
O=C1OCCN1c1cnc(-c2cncc(F)c2)nc1C(F)(F)F [Compound E17] | 4 | 1 | 3 | 4 | 0 | 2 | 1 | 0 | 0 | 0 | 0 | 3
CCC(C)OC(=O)Nc1cnc(-c2cncc(F)c2)nc1C(F)(F)F (stereo not drawn) [Compound E18] | 5 | 1 | 4 | 5 | 0 | 1 | 0 | 0 | 0 | 1 | 1 | 2
CCOC(=O)Nc1cnc(-c2cncc(F)c2)nc1C(F)(F)F [Compound E19] | 4 | 3 | 5 | 5 | 0 | 3 | 1 | 1 | 0 | 0 | 0 | 3
CC(C)(C)OC(=O)Nc1cnc(-c2cncc(F)c2)nc1OCc1ccccc1 [Compound E20] | 0 | 0 | 0 | 1 | 0 | 0 | 0 | 0 | 0 | 0 | 0 | 0
COC(=O)Nc1cnc(-c2cncc(F)c2)nc1C(F)(F)F [Compound E21] | 4 | 2 | 5 | 4 | 1 | 4 | 1 | 0 | 1 | 0 | 1 | 3
